The source of these data is patent US9969726B2, “Metabotropic glutamate receptor negative allosteric modulators (NAMS) and uses thereof” (Sanford-Burnham Medical Research Institute, priority 2014, dated 2018).

One data set deals with rat mGlu2 receptor (Rattus norvegicus (Rat), UniProt P31421). In words: mGlu2 in vitro GIRK thallium flux assay. Type of data set: cell-based. As to conditions: NAM, EC80 glutamate, HEK-293 GIRK cells. The gist of the method:
(§1)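 Cells expressing rat mGlu2 or mGlu3 with GIRK, plated overnight at 37 °C. Test compounds (0.3% DMSO, 10-point 1:3 series) preincubated 2.5 or 60 min, then thallium buffer plus EC80 glutamate added. Fluorescence slope 5–15 s after addition, normalised to vehicle and maximal agonist, fitted by four-parameter logistic.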

Another data set has as its target rat mGlu3 receptor (Rattus norvegicus (Rat), UniProt P31422). In words: mGlu3 in vitro GIRK thallium flux assay. Type of data set: cell-based. To be noted: NAM; 2.5 min compound incubation; EC80 glutamate; HEK-293 GIRK cells. The gist of the method: as §1
The nature of data set [1]: Microsomal stability in vitro assay. It is filed as in vitro ADME. To be noted: rat liver microsomes 1 mg/mL, 4 μM compound, 2 mM NADPH. The protocol: Pooled rat liver microsomes (BD Biosciences, #452701) were preincubated with test compounds at 37.5° C. for 5 min in the absence of NADPH. The reaction was initiated by addition of NADPH and incubated under the same conditions. The final incubation concentrations were 4 μM test compound, 2 mM NADPH, and 1 mg/mL (total protein) liver microsomes in phosphate-buffered saline (PBS) at pH 7.4. One aliquot (100 μL) of the incubation mixture was withdrawn at 15 min time points and combined immediately with 100 μL of ACN/MeOH. After mixing, the sample was centrifuged at approximately 13000 rpm for 12 min. The supernatant was filtered and transferred into an autosampler vial and the amount of test compound was quantified using a Shimadzu LCMS 2010EV mass spectrometer. The change of the AUC (area under the curve) of the parent compound as a function of time was used as a measure of microsomal stability. Test compounds were run in duplicate with a positive control.

The nature of data set [2]: Plasma stability in vitro assay. It is filed as in vitro ADME. To be noted: rat plasma, 100 μM, 37.5° C. The protocol: A 20 μL aliquot of a 10 mM solution in DMSO of the test compound was added to 2.0 mL of heparinized rat plasma (Lampire, P1-150N) to obtain a 100 μM final solution. The mixture was incubated for 1 h at 37.5° C. Aliquots of 100 μL were taken at 15 min intervals and diluted with 100 μL of MeOH/ACN. After mixing, the sample was centrifuged at approximately 13000 rpm for 12 min. The supernatant was filtered and transferred into an autosampler vial and the amount of test compound was quantified using the Shimadzu LCMS-2010EV system. The change of the AUC of the parent compound in function of time was used as a measure of plasma stability.

Where [3] appears, read: 2.5 min compound incubation, read-out: mGlu2 EC50 (μM) (2.5 min).
Setting [4] is: mGlu2 EC50 (μM) (60 min), 60 min compound incubation.
Where [5] appears, read: read-out: mGlu2 EC50 (μM) (60 min), 60 min compound incubation.

Like-named read-outs stand apart in the source and are kept apart here. Where only a bound is given, the exact number is not on record here.

Sequence of rat mGlu3 receptor (P31422 23-879): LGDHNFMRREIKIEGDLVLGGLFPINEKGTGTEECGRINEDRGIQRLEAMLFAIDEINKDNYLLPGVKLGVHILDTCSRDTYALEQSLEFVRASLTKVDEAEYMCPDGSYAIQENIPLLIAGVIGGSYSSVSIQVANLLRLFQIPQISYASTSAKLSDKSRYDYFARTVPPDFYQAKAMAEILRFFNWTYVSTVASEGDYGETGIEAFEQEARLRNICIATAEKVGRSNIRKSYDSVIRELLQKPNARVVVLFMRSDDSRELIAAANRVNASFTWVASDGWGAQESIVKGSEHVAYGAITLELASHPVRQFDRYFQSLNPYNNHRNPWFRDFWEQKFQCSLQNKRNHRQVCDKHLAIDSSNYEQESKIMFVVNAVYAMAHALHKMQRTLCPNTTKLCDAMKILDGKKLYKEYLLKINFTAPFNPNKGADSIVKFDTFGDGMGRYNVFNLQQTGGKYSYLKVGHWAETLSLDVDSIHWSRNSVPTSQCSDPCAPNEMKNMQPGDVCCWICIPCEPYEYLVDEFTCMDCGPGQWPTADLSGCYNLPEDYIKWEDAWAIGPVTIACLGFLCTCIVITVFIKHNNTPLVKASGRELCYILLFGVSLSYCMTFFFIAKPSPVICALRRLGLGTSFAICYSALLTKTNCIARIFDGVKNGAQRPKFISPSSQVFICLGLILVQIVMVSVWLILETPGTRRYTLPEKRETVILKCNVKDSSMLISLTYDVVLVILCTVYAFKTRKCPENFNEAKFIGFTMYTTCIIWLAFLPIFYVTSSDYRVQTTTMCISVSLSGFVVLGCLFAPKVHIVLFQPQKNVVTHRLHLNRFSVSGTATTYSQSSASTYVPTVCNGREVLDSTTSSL
Sequence of rat mGlu2 receptor (P31421 19-872): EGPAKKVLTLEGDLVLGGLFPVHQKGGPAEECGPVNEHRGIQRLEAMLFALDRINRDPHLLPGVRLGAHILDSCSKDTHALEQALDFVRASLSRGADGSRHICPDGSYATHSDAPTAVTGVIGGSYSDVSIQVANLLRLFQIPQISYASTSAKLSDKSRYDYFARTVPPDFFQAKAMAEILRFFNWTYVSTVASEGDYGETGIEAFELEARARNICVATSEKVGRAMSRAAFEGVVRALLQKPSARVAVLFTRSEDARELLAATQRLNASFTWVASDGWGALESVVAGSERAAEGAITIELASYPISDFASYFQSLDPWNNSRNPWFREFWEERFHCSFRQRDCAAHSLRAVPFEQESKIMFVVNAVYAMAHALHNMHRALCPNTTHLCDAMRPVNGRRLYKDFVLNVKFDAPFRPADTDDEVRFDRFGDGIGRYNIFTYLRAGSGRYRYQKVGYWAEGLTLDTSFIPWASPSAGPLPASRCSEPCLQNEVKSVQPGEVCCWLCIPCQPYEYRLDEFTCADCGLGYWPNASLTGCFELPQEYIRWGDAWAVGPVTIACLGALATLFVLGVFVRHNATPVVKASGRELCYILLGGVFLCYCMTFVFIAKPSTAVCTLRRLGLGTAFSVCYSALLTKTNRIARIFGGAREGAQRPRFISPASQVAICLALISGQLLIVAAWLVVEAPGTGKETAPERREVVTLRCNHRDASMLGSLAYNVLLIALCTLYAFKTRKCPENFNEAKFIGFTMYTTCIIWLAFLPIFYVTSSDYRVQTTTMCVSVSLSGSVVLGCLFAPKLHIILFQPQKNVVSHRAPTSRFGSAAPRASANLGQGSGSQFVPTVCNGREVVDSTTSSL

As to `O=C(O)c1cc(-c2cccc(-c3csc(-c4ccccc4)n3)c2)ccc1F` [Example 1, 4-Fluoro-3′-(2-phenylthiazol-4-yl)biphenyl-3-carboxylic Acid], the EC50 on rat mGlu2 receptor (setting [3]) stood at 0.33 µM; at rat mGlu2 receptor (setting [4]), 0.48 µM; at rat mGlu3 receptor, 1.21 µM. In data set [1], the “Microsomal Stability, Percent Remaining @ 1 hour” value stood at 3%. Moreover, the “Plasma Stability, Percent Remaining @ 1 hour” value in data set [2] worked out at 93%.

In the case of `N#Cc1cc(C2=Nc3ccc(C(F)(F)F)cc3NC(=O)C2)ccn1` [Example 184, 4-(2-Oxo-8-(trifluoromethyl)-2,3-dihydro-H-benzo[b][1,4]diazepin-4-yl)picolinonitrile], the EC50 was found to be 0.49 µM on rat mGlu2 receptor (setting [3]), 0.07 µM at rat mGlu2 receptor (setting [5]) and 0.41 µM on rat mGlu3 receptor. The “Microsomal Stability, Percent Remaining @ 1 hour” value in data set [1] was determined as 97%. Further, the “Plasma Stability, Percent Remaining @ 1 hour” value in data set [2] stood at 100%.

As to `O=C(O)c1cc(F)cc(-c2cccc(-c3nc(-c4ccc(C(F)(F)F)nc4)cc(C(F)(F)F)n3)c2)c1` [Example 76, 5-Fluoro-3′-(4-(trifluoromethyl)-6-(6-(trifluoromethyl)pyridin-3-yl)pyrimidin-2-yl)biphenyl-3-carboxylic Acid], the EC50 at rat mGlu2 receptor (setting [3]) was determined as 1.53 µM; at rat mGlu2 receptor (setting [5]) it was 0.09 µM; at rat mGlu3 receptor, 1.61 µM. In addition, in data set [1], the “Microsomal Stability, Percent Remaining @ 1 hour” value is reported as 95%. In addition, the “Plasma Stability, Percent Remaining @ 1 hour” value in data set [2] is listed as 100%.

As to `O=C(O)c1cc(-c2cccc(-c3nsc(-c4ccccc4)n3)c2)ccc1F` [Example 38, 4-Fluoro-3′-(5-phenyl-1,2,4-thiadiazol-3-yl)biphenyl-3-carboxylic Acid], the EC50 at rat mGlu2 receptor (setting [3]) is 0.1 µM; at rat mGlu2 receptor (setting [4]), 0.05 µM; at rat mGlu3 receptor it was 0.52 µM. Also, the “Microsomal Stability, Percent Remaining @ 1 hour” value in data set [1] turned out to be 2%. For the same compound, the “Plasma Stability, Percent Remaining @ 1 hour” value in data set [2] was determined as 65%.

Regarding `O=C(O)c1cc(-c2cccc(-c3nc(-c4ccccc4)cc(C(F)(F)F)n3)c2)ccc1F` [Example 86, 4-Fluoro-3′-(4-phenyl-6-(trifluoromethyl)pyrimidin-2-yl)biphenyl-3-carboxylic Acid], the concentration for a half-maximal effect (EC50) on rat mGlu2 receptor (setting [3]) is 0.8 µM; on rat mGlu2 receptor (setting [5]), 0.04 µM; at rat mGlu3 receptor, 0.92 µM. For the same compound, the “Microsomal Stability, Percent Remaining @ 1 hour” value in data set [1] was determined as 100%. Moreover, the “Plasma Stability, Percent Remaining @ 1 hour” value in data set [2] was determined as 100%.

Regarding `O=C(O)c1cc(F)cc(-c2cccc(-c3csc(-c4ccccc4)n3)c2)c1` [Example 9, 5-Fluoro-3′-(2-phenylthiazol-4-yl)biphenyl-3-carboxylic Acid], the results for the EC50 on rat mGlu2 receptor (setting [3]), on rat mGlu2 receptor (setting [4]) and at rat mGlu3 receptor were 0.64 µM, 0.35 µM and over 10 µM, respectively. In addition, the “Microsomal Stability, Percent Remaining @ 1 hour” value in data set [1] was 4%. Besides, the “Plasma Stability, Percent Remaining @ 1 hour” value in data set [2] amounted to 98%.

As to `O=C(O)c1cccc(-c2cccc(-c3cc(-c4ccccc4)sn3)c2)c1` [Example 44, 3′-(5-Phenylisothiazol-3-yl)-[1,1′-biphenyl]-3-carboxylic Acid], the EC50 at rat mGlu2 receptor (setting [3]) is 0.68 µM; on rat mGlu2 receptor (setting [5]), 0.18 µM; on rat mGlu3 receptor, over 10 µM.

Regarding `O=C(O)c1cccc(-c2cccc(-c3nsc(-c4ccccc4)n3)c2)c1` [Example 39, 3′-(5-Phenyl-1,2,4-thiadiazol-3-yl)biphenyl-3-carboxylic Acid], the 50% effective concentration (EC50) at rat mGlu2 receptor (setting [3]) came out at 0.32 µM; on rat mGlu2 receptor (setting [4]) it was 0.05 µM; on rat mGlu3 receptor it was 2.28 µM.

For `O=C(O)c1cccc(-c2cccc(-c3nc(-c4ccccc4)nn3-c3ccccc3)c2)c1` [Example 66, 3′-(1,3-Diphenyl-1H-1,2,4-triazol-5-yl)-[1,1′-biphenyl]-3-carboxylic Acid], the concentration giving a half-maximal response (EC50) on rat mGlu2 receptor (setting [3]), at rat mGlu2 receptor (setting [5]) and at rat mGlu3 receptor was over 10 µM each time.

In the case of `CSc1ccc(-c2cc(C(F)(F)F)nc(-c3cccc(-c4ccc(F)c(C(=O)O)c4)c3)n2)cc1` [Example 103, 4-Fluoro-3′-(4-(4-(methylthio)phenyl)-6-(trifluoromethyl)pyrimidin-2-yl)biphenyl-3-carboxylic Acid], the EC50 was found to be 4.69 µM at rat mGlu2 receptor (setting [3]), 0.99 µM at rat mGlu2 receptor (setting [5]) and 4.54 µM on rat mGlu3 receptor.

As a reminder, the EC50 is the concentration needed to bring the measured effect to its halfway point.
